Source: patent US7851436B2, “Inhibition of migration and induction of cell death by the type II collagen amino propeptides” (Washington University, priority 2007, dated 2010)
Entries after “also recorded” stand apart in the source; their conditions may differ.

What was measured:
[1] = system: HUVEC cells; assay: Tube formation assay; type: cell-based, human
Experimental: Tube Formation Assay. The tube formation assay using HUVEC cells was performed as described with some modification. Briefly, a suspension of 7.5×10^4 cells/well in complete medium was seeded into a Matrigel-coated 24-well plate in the presence of recombinant PIIBNP or GST (0-10 μM). The formation of tubes was evaluated using light microscopy and quantification was performed using a Q Capture Pro imaging software. Branch points per field were counted from three fields for each treatment.

[2] = system: mouse chondrogenic cells (ATDC5); assay: Chondrogenic cell viability (trypan blue exclusion); type: cell-based; settings: 16 hours at 37° C.
Experimental: (§1) FIG. 10 depicts a graph showing mouse chondrogenic cells (ATDC5), mouse osteoblast cells, and mouse osteoclast cells treated with recombinant GST, PIIBNP or mPIIBNP proteins for 16 hours at 37° C. The cells were trypsinized and cell viability was assayed using a trypan blue exclusion based cell counting. PPIIBNP induced death in osteoclasts that resorb the bone, but not the osteoblasts that form bone.

[3] = system: osteoclasts differentiated from Raw 264.7 cells, integrin αv siRNA treated; assay: Osteoclast death after integrin αv siRNA; type: cell-based, mouse; settings: 16 hours
Experimental: FIG. 11 depicts a graph showing PIIBNP-induced osteoclast death. siRNA specifically targeted to integrin αv was purchased from San Cruz (San Cruz, Calif.). Raw 264.7 cells were differentiated into osteoclasts by treatment with 100 nM of s-RANKL. The integrin αv expression in the […] were suppressed by treatment of the cells with siRNA. Integrin αv suppressed osteoblasts were incubated with recombinant GST, PIIBNP or mPIIBNP for 16 hours. Cell viability was assayed by a trypan blue exclusion test as described in FIG. 3.

[4] = system: siRNA-treated Ch-1 cells; assay: Cell death in integrin αV siRNA-treated Ch-1 cells; type: cell-based, human; settings: 0.8 μM, serum-free medium, 24 hrs
Experimental: (§2) Detection of Cell Death. Cells were cultured to confluence in a 24-well plate pre-coated with type I collagen, fibronectin (Sigma), and ECM Matrigel (Becton Dickinson). Proteins in serum-free medium were added to the cells. Cells were monitored by light microscopy and images were digitally photographed using a Q capture Retiga 2000R camera. Quantification of cells remaining in the well was performed by washing with PBS for three times, fixing with 4% paraformaldehyde. The cells per field (×400) were counted for three field per well (3 wells per measurement). The mean number and standard deviation (SD) were calculated.
SiRNA Interference. Ch-1 cells were grown to 60-80% confluence in 6 well plates in Opti-Mem medium (Invitrogen) without antibiotics and serum. A reported method (6) is used in the design of siRNAs, sense and antisense oligonucleotides. The final concentration of oligonucleotides was 0.05 μM. Transfection was performed using a lipofectamine kit (InVitrogen). Half of the wells were stimulated with 200 ng/ml PMA (phorbol 12-myristate 13-acetate) after 4 hours incubation with oligonucleotides. Total RNA was collected via the TriZol method after incubation for 44 hours. 1 μg of total RNA was reverse transcribed with Superscript RT II in a 40 μl volume. […] Bands were quantified with Image Quant software.

[5] = biological target: T1, αV integrin (Homo sapiens, UniProt P06756); assay: Integrin αV immunoprecipitation; type: binding; settings: Ch-1 cell lysates
T1 construct: Cell homogenates were then mixed with GST, PIIBNP, or mPIIBNP; endogenous in cells; host or cells: Ch-1 human chondrosarcoma cell lysate
T1 sequence (P06756 31-889 limits assumed): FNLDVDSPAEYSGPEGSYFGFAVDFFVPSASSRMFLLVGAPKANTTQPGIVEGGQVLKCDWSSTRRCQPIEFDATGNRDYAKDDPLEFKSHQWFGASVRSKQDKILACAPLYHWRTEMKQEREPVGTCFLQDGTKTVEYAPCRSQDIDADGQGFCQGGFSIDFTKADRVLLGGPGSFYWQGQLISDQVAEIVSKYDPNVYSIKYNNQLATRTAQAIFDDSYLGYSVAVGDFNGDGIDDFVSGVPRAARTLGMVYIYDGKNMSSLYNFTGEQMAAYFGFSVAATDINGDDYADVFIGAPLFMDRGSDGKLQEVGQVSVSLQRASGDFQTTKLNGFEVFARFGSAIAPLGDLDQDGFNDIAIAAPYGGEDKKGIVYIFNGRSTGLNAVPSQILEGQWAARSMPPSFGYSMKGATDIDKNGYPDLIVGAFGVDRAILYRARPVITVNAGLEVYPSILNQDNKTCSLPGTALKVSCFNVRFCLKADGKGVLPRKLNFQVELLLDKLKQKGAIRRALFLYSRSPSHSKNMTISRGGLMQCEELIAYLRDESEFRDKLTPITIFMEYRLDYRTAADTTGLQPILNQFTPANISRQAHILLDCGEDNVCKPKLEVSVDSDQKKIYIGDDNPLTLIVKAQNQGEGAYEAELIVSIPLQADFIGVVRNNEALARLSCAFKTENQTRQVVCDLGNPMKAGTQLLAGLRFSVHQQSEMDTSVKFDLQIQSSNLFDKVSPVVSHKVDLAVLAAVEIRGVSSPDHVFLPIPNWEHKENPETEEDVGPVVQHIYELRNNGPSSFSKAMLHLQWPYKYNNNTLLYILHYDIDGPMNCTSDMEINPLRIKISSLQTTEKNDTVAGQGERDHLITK
T1 sequence (P06756 891-1048 limits assumed): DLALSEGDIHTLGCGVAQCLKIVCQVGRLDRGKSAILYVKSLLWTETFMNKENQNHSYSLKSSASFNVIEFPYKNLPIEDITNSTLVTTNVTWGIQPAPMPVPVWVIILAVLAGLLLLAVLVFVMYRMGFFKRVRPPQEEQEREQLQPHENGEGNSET
Experimental: Integrin αV Immunoprecipitation. Ch-1 cells were lysed in lysis buffer (50 mM Hepes-KOH [pH 7.4]; 150 mM NaCl; 1% Triton X-100; 10% glycerol; 1 mM EGTA; 1 mM EDTA; 10 mM sodium pyrophosphate; 100 mM sodium fluoride; 0.2 mM sodium orthovanadate; supplemented with the proteinase inhibitors cocktail (Sigma) overnight at 4° C. Cell homogenates were then mixed with GST, PIIBNP, or mPIIBNP and incubated for 1 hours at room temperature. Protein A agarose (Sigma) previously bound with integrin αV antibody was incubated with cell homogenate mixture for 4 h at 4° C. with gentle shaking. After washing (5 mins.×3), the precipitated material was analyzed by SDS-PAGE and detected with chicken anti PIIBNP antibody.

[6] = system: mouse osteoclast cells; assay: Osteoclast viability (trypan blue exclusion); type: cell-based; settings: 16 hours at 37° C.
Experimental: as §1

[7] = system: normal human articular chondrocytes; assay: Cell survival assay in normal human articular chondrocytes; type: cell-based; settings: high-density monolayers
Experimental: Cell Culture. Human Chondrosarcoma cell line (Ch-1) was isolated from a portion of chondrosarcoma tumor. The Ch-1 cell line was maintained in RPMI-1640 supplemented with 10% FBS and at 37° C. in a humidified, 5% CO2 atmosphere. Human chondrocytes were obtained from Dr. Davis Adkisson (ISTO Technologies, St. Louis) or isolated from macroscopically intact tissue obtained from total joint arthroplasty as described (Bassleer et al., 1998). HeLa 229 cells and MDA-MB 231 cell lines were provided by Dr. Kathy Weilbaecher (Washington University) and were cultured in RPMI medium supplemented with 10% FBS. HUVEC cells were a gift from Dr. William Frazier (Washington University) and were cultured in M199 Earle's medium with 10 units/ml of penicillin, 5 μg/ml streptomycin and 0.25 μg/ml Fungizone supplemented with 10% FBS, 0.1 mg/ml L-glutamine, 25 mM Hepes, 16 units/ml of heparin (Sigma) and 0.1 mg/ml endothelial cell mitogen (Biochemical Technologies).
as §2, with “Cells were cultured to confluence in a 24-well plate pre-coated with type I collagen, fibronectin (Sigma), and ECM Matrigel (Becton Dickinson). Proteins in serum-free medium were added to the cells.” left out

[8] = biological target: T2, αVβ5 integrin (Homo sapiens, UniProt P06756+P18084); assay: Cell surface labeling and GST pull-down with immunoblotting; type: binding; settings: biotin-labeled Ch-1 membrane proteins, Western blot
T2 construct: Ch-1 membrane proteins were labeled with biotin, and PIIBNP was used to isolate the integrin molecules; endogenous in cells; host or cells: Ch-1 human chondrosarcoma cells (surface-biotinylated, lysed)
T2 sequence (P06756 31-889 limits assumed): as the sequence (P06756 31-889 limits assumed) above
T2 sequence (P06756 891-1048 limits assumed): as the sequence (P06756 891-1048 limits assumed) above
T2 sequence (P18084 24-799): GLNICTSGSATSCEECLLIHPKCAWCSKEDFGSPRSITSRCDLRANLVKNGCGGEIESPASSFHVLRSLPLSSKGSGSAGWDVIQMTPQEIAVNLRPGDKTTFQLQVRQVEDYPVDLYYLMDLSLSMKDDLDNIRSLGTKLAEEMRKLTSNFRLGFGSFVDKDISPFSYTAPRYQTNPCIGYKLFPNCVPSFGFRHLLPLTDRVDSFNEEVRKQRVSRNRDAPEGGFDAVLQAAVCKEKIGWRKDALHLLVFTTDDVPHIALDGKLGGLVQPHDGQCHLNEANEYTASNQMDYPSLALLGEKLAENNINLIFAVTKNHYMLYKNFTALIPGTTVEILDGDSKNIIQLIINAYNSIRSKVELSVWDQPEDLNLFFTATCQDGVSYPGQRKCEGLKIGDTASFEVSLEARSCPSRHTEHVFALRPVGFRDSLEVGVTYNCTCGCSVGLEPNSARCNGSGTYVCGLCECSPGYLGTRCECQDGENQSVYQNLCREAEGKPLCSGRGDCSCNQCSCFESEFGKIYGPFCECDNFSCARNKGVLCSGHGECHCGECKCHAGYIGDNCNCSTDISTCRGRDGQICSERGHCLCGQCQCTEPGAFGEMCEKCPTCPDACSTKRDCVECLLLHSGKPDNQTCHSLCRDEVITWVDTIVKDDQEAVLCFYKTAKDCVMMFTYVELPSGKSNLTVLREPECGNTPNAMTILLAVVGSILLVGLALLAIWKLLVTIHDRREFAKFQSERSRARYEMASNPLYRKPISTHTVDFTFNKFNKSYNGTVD
Experimental: (§3) Immunoblotting. Western blotting was performed as described (7). Blots were probed with the following primary antibodies: rabbit anti αV, α2, α3, α5, β1, β3, β5 integrin and goat anti actin (Saint Cruz), chicken anti PIIBNP antiserum, and mouse anti exon 2 antiserum.
(§4) Cell Surface labeling and GST Pull-down Assay. Ch-1 cells were incubated with EZ-link Sulfo-NHS-Biotin reagent for 30 mins. according to the product instruction (Sigma). After 3 washes with 0.1 M glycine in PBS, the cells were lysed with a lysis buffer described above. The lysate was incubated with glutathione derivatized agarose beads previously bound with GST, PIIANP, PIIBNP or mPIIBNP for 1 hr. at RT. […] The membrane was washed and incubated with antibodies and then incubated with a secondary antibody coupled to horseradish peroxidase. The antibody complex was visualized by enhanced chemiluminescence.

[9] = biological target: T3, αVβ3 integrin (Homo sapiens, UniProt P05106+P06756); assay: as above; type: binding; settings: biotin-labeled Ch-1 membrane proteins, Western blot
T3 construct: Ch-1 membrane proteins were labeled with biotin, and PIIBNP was used to isolate the integrin molecules; endogenous in cells; host or cells: Ch-1 human chondrosarcoma cells (surface-biotinylated, lysed)
T3 sequence (P06756 31-889 limits assumed): as the sequence (P06756 31-889 limits assumed) above
T3 sequence (P06756 891-1048 limits assumed): as the sequence (P06756 891-1048 limits assumed) above
T3 sequence (P05106 27-788): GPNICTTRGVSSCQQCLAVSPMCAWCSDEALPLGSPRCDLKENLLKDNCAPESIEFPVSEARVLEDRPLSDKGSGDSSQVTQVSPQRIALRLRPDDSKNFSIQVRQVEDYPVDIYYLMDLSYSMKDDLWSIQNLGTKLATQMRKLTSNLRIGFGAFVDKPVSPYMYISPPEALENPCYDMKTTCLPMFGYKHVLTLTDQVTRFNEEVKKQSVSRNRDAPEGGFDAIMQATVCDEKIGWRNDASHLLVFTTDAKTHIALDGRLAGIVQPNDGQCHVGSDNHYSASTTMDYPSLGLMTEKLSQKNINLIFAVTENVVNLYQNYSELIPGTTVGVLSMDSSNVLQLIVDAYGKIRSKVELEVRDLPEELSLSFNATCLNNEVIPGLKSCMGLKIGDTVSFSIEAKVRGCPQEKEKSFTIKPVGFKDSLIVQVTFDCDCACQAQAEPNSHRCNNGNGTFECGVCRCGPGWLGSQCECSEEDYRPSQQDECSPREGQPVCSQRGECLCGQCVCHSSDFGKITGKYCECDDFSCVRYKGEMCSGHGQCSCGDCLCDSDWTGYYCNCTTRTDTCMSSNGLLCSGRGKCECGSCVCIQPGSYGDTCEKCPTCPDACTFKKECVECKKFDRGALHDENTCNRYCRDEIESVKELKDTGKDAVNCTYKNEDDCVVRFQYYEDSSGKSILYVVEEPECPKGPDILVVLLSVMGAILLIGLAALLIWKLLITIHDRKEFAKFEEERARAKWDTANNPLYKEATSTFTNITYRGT
Experimental: as §3, §4

## PIIBNP: Recombinant human Type IIB procollagen NH2-propeptide (exons 3-8, lacking exon 2), expressed as GST fusion protein
[1]; 0.1 μM
  tube formation inhibited: 50%
[1]; Matrigel-coated plates, 0-10 μM
  inhibition of tube formation: able to inhibit the formation of tubes in a dose-dependent manner
[2]
  induction of ATDC5 cell death: did not lead to the mouse chondrogenic cell (ATDC5) death
[3]
  PIIBNP-induced osteoclast death after integrin αv siRNA compared with control siRNA: significantly reduced
[4]
  induction of cell death in αV siRNA-treated Ch-1 cells: not able to induce cell death; also recorded: did not induce cell death
[5]
  immunoprecipitation with αV integrin specific antibody: immunoprecipitated
[6]; listed as PPIIBNP
  induction of osteoclast death: induced death
[6]; listed as Type IIB propeptide
  induction of osteoclast death: induced the death
[7]
  induction of cell death in normal chondrocytes: did not induce cell death
[8]
  binding to integrin αVβ5: only integrins identified; also recorded: binds
[9]
  binding to integrin αVβ3: only integrins identified; also recorded: binds
